# Test results as given in PubChem BioAssay (NCI).
#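 Method: 48-hour compound exposure of cells in 96-well plates, five concentrations, linear interpolation of endpoints. TGI: concentration producing complete growth inhibition.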
# Experiments:
# Experiment in all cases: growth of human tumour cells (NCI), 48 h
# OVCAR-8 ovarian = system: OVCAR-8 ovarian
# SR leukemia = system: SR leukemia
# HCT-116 colon = system: HCT-116 colon
# SF-539 CNS = system: SF-539 CNS
# MDA-MB-231 breast = system: MDA-MB-231 breast
# NCI-H460 lung = system: NCI-H460 lung
# SK-MEL-28 melanoma = system: SK-MEL-28 melanoma
# PC-3 prostate = system: PC-3 prostate
# MDA-MB-435 = system: MDA-MB-435
# OVCAR-3 ovarian = system: OVCAR-3 ovarian
# MOLT-4 leukemia = system: MOLT-4 leukemia
# CAKI-1 renal = system: CAKI-1 renal
# 786-0 renal = system: 786-0 renal
Structure (SMILES),TGI (OVCAR-8 ovarian),TGI (SR leukemia),TGI (HCT-116 colon),TGI (SF-539 CNS),TGI (MDA-MB-231 breast),TGI (NCI-H460 lung),TGI (SK-MEL-28 melanoma),TGI (PC-3 prostate),TGI (MDA-MB-435),TGI (OVCAR-3 ovarian),TGI (MOLT-4 leukemia),TGI (CAKI-1 renal),TGI (786-0 renal)
COC(=O)[C@H](Cc1ccccc1)NC(=O)c1ccc(CNC(=O)/C=C/c2ccc(OCc3ccccc3)cc2)cc1,36.4 µM,> 100 µM,> 100 µM,51.9 µM,47 µM,> 100 µM,25.2 µM,43.8 µM,12.8 µM,28.2 µM,28 µM,26 µM,19.1 µM
COc1cc(C2C=C(c3ccccc3)Oc3cc4c(cc32)OCO4)cc(OC)c1OC (stereo unspecified),> 32.6 µM,> 100 µM,9.44 µM,3.63 µM,> 32.2 µM,> 100 µM,> 100 µM,> 100 µM,> 100 µM,> 100 µM,> 100 µM,> 100 µM,> 19.6 µM
O=C(O)c1nc2cc(Cl)ccc2[nH]c1=O,> 100 µM,> 100 µM,> 100 µM,> 100 µM,> 100 µM,> 100 µM,> 100 µM,> 100 µM,> 100 µM,> 100 µM,> 100 µM,> 100 µM,> 100 µM
Cc1nc(OCc2ccccc2)c2ncn(CCO)c2n1,–,> 100 µM,> 100 µM,> 100 µM,> 100 µM,> 100 µM,> 100 µM,> 100 µM,> 100 µM,> 100 µM,> 100 µM,> 100 µM,> 100 µM
COC(=O)c1ccc(NCc2cc(OC)ccc2OC)cc1,> 100 µM,> 100 µM,> 100 µM,> 100 µM,> 100 µM,–,> 100 µM,> 100 µM,> 100 µM,> 100 µM,> 100 µM,> 100 µM,> 100 µM
Cn1c(-c2ccc(C=O)o2)ccc1-c1ccc(C=O)o1,> 100 µM,> 100 µM,36.7 µM,63.7 µM,> 100 µM,> 100 µM,> 100 µM,> 100 µM,> 100 µM,81.2 µM,80.3 µM,36.8 µM,> 100 µM
Fc1cc(C2=Nn3c(COc4ccccc4Cl)nnc3S/C2=C\c2ccc(Cl)cc2)c(Cl)cc1Cl,> 100 µM,> 100 µM,26.1 µM,> 100 µM,> 100 µM,> 100 µM,13.4 µM,68.9 µM,6.3 µM,62 µM,> 100 µM,31.5 µM,26.5 µM
Cc1ccc(S(=O)(=O)n2cc(C=O)c(-c3cn(S(=O)(=O)c4ccc(C)cc4)cc3-c3cn(S(=O)(=O)c4ccc(C)cc4)cc3C=O)c2)cc1,> 100 µM,> 100 µM,> 100 µM,76.4 µM,> 100 µM,> 100 µM,–,> 100 µM,> 100 µM,> 100 µM,93.3 µM,> 100 µM,> 100 µM
